For data set [1], the target named is T1, hSERT (Homo sapiens, UniProt P31645).
T1 construct: expressed in transfected cells; host or cells: HEK293 (stably transfected, G418 selection)
Nature of the data set: hSERT neurotransmitter uptake assay. In kind it is cell-based. The following applies: serotonin reuptake inhibition, HEK293-hSERT cells; read-out: SERT pIC50 (converted). The method, then:
Neurotransmitter uptake assays were used to measure inhibition of ^3H-serotonin (^3H-5-HT) uptake into cells expressing hSERT in order to determine the pIC50 values of test compounds at the transporter, similar to the procedures described in Tsuruda et al. (2010) Journal of Pharmacological and Toxicological Methods 61(2):192-204.
HEK293 cells stably-transfected with human recombinant SERT (HEK293-hSERT) were grown in DMEM medium supplemented with 10% dialyzed fetal bovine serum, 100 μg/ml penicillin, 100 μg/ml streptomycin, 2 mM L-glutamine, and 250 μg/ml of the aminoglycoside antibiotic G418. Cells were incubated in a 5% CO2, humidified incubator at 37° C.
The neurotransmitter uptake assay was performed in a 96-well assay plate in a total volume of 100 μL assay buffer containing HEK293-hSERT cells (7500-10,000 cells/well; plated ˜2 hours prior to assay initiation. Neurotransmitter Transporter Uptake Assay dye (0.5 μM), and eleven different concentrations of compound ranging from 10 μM to […] was used. Non-specific uptake was determined in the presence of indatraline (2.5 μM). The final assay buffer was 12.5 mM Tris-HCl, 5 mM HEPES, 3 mM NaHCO3, 0.3 mM KH2PO4, 0.25 mM Na2HPO4, 130 mM NaCl, 5 mM KCl, 1 mM CaCl2, 0.4 mM MgCl2, 0.3 mM MgSO4, 4 mM D-glucose, 0.025% BSA, 0.1 mM ascorbic acid, pH 7.4.
In pre-incubation studies, test compound was added to cells for 30 minutes at 37° C. prior to the addition of fluorescent substrate. For determination of inhibitory potency, a 10-30 minute endpoint substrate accumulation was determined by fluorescence spectroscopy using a Safire (Tecan Group Ltd., Minnendorf, Switzerland) and analysis was performed as described in Tsuruda et al., supra. For real-time measurements, compounds were either preincubated (as above) or mixed with substrate prior to addition, and kinetic measurements, relative fluorescence units (RFU integrated over 0.5 ms), were made using a cycle time of 1 min.

A short description of data set [2]: Peripheral selectivity (Assay 4): free plasma versus free brain exposure after oral dosing. In kind it is in vivo. The following applies: fed male Sprague-Dawley rats, 0.5-24 hours post-dose, unbound fractions by equilibrium dialysis. The method, then: Fed male Sprague-Dawley rats (n=1/timepoint) were dosed orally with a test compound. Blood (via cardiocentesis), cerebrospinal fluid (CSF) (via cisternae magna) and brain were collected from an animal at 0.5, 1, 2, 4, 8 and 24 hours post-dose. Total plasma, CSF and brain concentrations were determined by LC-MS/MS. The pharmacokinetic parameters were assessed by non-compartmental methods using WinNonlin (Version 5.3, Pharsight, Mountain View, Calif.). The unbound fraction in plasma and brain was determined by equilibrium dialysis. Free plasma and free brain concentrations were determined by multiplying the total concentration in plasma or brain by its respective unbound fraction. CSF was assumed to be unbound, due to the absence of protein. Peripheral selectivity was assessed by comparing the unbound exposures (Cmax and AUC) in free plasma versus CSF and/or free brain.
For orientation: In equilibrium dialysis only unbound substance equilibrates across the membrane.

T1 sequence (P31645 whole entry): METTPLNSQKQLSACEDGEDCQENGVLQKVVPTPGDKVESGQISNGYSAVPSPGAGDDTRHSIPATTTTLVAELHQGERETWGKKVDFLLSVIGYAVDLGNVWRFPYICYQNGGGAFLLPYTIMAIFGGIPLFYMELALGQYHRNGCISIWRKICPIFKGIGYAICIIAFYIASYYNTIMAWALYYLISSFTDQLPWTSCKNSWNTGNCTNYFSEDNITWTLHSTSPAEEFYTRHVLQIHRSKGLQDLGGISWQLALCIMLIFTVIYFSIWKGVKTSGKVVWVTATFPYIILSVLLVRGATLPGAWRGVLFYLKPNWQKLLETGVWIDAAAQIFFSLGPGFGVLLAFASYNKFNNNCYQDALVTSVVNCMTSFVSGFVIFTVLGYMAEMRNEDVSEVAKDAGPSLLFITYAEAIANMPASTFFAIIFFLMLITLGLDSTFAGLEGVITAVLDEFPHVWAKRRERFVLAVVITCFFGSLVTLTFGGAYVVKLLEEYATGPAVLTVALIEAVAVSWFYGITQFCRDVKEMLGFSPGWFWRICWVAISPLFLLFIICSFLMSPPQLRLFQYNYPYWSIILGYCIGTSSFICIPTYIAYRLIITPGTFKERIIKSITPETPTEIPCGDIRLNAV

Turning to `CS(=O)(=O)C[C@@H](Oc1ccc(C(F)(F)F)cc1)[C@H]1CCNC1` [Example 1, (S)-3-[(S)-2-Methanesulfonyl-1-(4-trifluoromethylphenoxy)ethyl]pyrrolidine], the IC50 in data set [1] was no more than 0.01 µM. The “Free plasma AUC/Free brain AUC” value in data set [2] is given as greater than 70.

Take `CS(=O)(=O)C[C@H](Oc1ccc([N+](=O)[O-])cc1)[C@@H]1CCNC1` [Example 2-8, (R)-3-[(R)-2-Methanesulfonyl-1-(4-nitro-phenoxy)ethyl]pyrrolidine]: in data set [1], the IC50 is no more than 0.1 µM. Besides, the “Free plasma AUC/Free brain AUC” value in data set [2] is greater than 10.

Consider `CS(=O)(=O)C[C@@H](Oc1ccc([N+](=O)[O-])cc1)[C@@H]1CCNC1` [Example 2-7, (R)-3-[(S)-2-Methanesulfonyl-1-(4-nitro-phenoxy)ethyl]pyrrolidine], for which the IC50 in data set [1] is no more than 0.1 µM. In addition, the “Free plasma AUC/Free brain AUC” value in data set [2] is reported as greater than 20.

`CS(=O)(=O)C[C@@H](Oc1ccc(C(F)(F)F)cn1)[C@@H]1CCNC1` [Example 3]: in data set [1], the IC50 was no more than 0.1 µM. Moreover, the “Free plasma AUC/Free brain AUC” value in data set [2] is greater than 20.

Take `CS(=O)(=O)C[C@H](Oc1ccc(C(F)(F)F)cc1)[C@@H]1CCNC1` [Example 2-2, (R)-3-[(R)-2-Methanesulfonyl-1-(4-trifluoromethylphenoxy)ethyl]pyrrolidine]: the IC50 in data set [1] was no more than 0.01 µM.

As for `CS(=O)(=O)C[C@H](Oc1ccc(OC(F)(F)F)cc1)[C@H]1CCNC1` [Example 2-10, (S)-3-[(R)-2-Methanesulfonyl-1-(4-trifluoromethoxyphenoxy)ethyl]pyrrolidine], the IC50 in data set [1] is no more than 0.1 µM.

For the compound `CS(=O)(=O)C[C@@H](Oc1ccc([N+](=O)[O-])cc1)[C@H]1CCNC1` [Example 2-5, (S)-3-[(S)-2-Methanesulfonyl-1-(4-nitrophenoxy)ethyl]pyrrolidine], the IC50 in data set [1] was no more than 0.1 µM.

(Values after patent US9000191B2, “Serotonin reuptake inhibitors” (Theravance Biopharma R&D IP, LLC, priority 2010, dated 2015).)
